Results: patent publication US7981903B2, “2-[2-{phenylamino}-1H-pyrrolo[2,3-D]pyrimidin-4-yl)amino] benzamide derivatives as IGF-1R inhibitors for the treatment of cancer” (GlaxoSmithKline LLC, priority 2007, dated 2011)

Experiments:
[1] = biological target: ALK (Homo sapiens, UniProt Q9UM73); test: ALK enzyme assay (HTRF); format: biochemical; conditions: 0.25 nM ALK, 15.0 μM ATP, values given as pIC50 category
In short: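 Final compound range 0.00017 to 10 μM (twelve 1:3 dilutions). Kinase reaction with ATP and biotinylated synthetic peptide runs 120 min at 20° C, stopped with EDTA; phosphotyrosine detected by HTRF after 60 min. Inhibition referenced to DMSO (1%) and EDTA (0.1 M) controls, curve-fitted.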

[2] = tested on: Colo205; test: Inhibition of cell proliferation (CellTiter-Glo or InCell analyzer), Colo205; format: cell-based; conditions: Homo sapiens, COLO 205, 72 h / 3 days, values given as IC50 category
In short: In one

[3] = tested on: NCI-H929; test: Inhibition of cell proliferation (CellTiter-Glo or InCell analyzer), NCI-H929; format: cell-based; conditions: Homo sapiens, 72 h / 3 days, values given as IC50 category
In short: In one

[4] = biological target: T1, NIH-3T3 cells overexpressing human IR (Homo sapiens, UniProt P06213); test: IR cellular autophosphorylation (DELFIA); format: cell-based; conditions: 2 h compound, insulin 3 ug/ml for 15 minutes, IC50 category
T1 construct: expressed in transfected cells; host or cells: NIH-3T3 (mouse fibroblasts)
T1 sequence (P06213 28-1382): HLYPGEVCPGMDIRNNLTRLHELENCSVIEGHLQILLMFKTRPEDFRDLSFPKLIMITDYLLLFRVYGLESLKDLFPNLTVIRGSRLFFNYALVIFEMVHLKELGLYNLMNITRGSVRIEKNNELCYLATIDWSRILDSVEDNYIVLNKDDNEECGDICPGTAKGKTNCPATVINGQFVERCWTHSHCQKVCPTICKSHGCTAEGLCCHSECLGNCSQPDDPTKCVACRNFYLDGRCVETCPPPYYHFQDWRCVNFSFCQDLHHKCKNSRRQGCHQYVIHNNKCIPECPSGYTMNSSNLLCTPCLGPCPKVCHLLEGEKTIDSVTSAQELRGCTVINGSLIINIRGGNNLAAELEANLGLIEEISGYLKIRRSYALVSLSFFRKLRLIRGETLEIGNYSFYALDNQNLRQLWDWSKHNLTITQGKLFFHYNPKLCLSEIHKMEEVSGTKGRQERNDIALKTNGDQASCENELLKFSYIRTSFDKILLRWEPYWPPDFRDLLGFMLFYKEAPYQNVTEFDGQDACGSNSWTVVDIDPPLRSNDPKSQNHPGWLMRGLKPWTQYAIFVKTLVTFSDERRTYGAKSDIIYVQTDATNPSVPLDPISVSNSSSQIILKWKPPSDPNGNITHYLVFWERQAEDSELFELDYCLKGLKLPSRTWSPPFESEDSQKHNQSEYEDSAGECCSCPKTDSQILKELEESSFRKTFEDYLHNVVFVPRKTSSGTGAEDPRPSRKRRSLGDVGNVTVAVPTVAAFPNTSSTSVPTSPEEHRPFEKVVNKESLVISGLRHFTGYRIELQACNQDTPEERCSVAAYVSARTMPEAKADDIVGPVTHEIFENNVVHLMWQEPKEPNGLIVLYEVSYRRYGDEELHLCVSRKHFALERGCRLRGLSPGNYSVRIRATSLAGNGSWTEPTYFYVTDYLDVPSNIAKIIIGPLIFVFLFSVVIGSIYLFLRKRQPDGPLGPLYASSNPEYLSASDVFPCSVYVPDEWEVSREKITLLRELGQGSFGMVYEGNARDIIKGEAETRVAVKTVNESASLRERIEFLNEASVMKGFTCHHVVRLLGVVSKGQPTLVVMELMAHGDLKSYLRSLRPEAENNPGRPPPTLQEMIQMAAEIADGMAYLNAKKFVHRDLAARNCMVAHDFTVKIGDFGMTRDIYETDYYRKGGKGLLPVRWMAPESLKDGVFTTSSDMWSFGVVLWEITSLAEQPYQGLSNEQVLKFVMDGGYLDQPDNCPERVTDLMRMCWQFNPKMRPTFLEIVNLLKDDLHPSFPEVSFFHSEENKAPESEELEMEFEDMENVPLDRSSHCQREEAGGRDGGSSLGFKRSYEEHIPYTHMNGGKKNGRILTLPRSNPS
In short: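 Receptor autophosphorylation measured by DELFIA, capturing IGF-1R or IRβ and detecting with europium anti-pTyr, reported as percent of IGF-1- or insulin-stimulated signal. Compounds (30 uM to 1.5 nM) added 2 h before ligand, then 15 min stimulation (IGF-1 30 ng/ml or insulin 3 ug/ml).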

Chain of ALK (Q9UM73 19-1620): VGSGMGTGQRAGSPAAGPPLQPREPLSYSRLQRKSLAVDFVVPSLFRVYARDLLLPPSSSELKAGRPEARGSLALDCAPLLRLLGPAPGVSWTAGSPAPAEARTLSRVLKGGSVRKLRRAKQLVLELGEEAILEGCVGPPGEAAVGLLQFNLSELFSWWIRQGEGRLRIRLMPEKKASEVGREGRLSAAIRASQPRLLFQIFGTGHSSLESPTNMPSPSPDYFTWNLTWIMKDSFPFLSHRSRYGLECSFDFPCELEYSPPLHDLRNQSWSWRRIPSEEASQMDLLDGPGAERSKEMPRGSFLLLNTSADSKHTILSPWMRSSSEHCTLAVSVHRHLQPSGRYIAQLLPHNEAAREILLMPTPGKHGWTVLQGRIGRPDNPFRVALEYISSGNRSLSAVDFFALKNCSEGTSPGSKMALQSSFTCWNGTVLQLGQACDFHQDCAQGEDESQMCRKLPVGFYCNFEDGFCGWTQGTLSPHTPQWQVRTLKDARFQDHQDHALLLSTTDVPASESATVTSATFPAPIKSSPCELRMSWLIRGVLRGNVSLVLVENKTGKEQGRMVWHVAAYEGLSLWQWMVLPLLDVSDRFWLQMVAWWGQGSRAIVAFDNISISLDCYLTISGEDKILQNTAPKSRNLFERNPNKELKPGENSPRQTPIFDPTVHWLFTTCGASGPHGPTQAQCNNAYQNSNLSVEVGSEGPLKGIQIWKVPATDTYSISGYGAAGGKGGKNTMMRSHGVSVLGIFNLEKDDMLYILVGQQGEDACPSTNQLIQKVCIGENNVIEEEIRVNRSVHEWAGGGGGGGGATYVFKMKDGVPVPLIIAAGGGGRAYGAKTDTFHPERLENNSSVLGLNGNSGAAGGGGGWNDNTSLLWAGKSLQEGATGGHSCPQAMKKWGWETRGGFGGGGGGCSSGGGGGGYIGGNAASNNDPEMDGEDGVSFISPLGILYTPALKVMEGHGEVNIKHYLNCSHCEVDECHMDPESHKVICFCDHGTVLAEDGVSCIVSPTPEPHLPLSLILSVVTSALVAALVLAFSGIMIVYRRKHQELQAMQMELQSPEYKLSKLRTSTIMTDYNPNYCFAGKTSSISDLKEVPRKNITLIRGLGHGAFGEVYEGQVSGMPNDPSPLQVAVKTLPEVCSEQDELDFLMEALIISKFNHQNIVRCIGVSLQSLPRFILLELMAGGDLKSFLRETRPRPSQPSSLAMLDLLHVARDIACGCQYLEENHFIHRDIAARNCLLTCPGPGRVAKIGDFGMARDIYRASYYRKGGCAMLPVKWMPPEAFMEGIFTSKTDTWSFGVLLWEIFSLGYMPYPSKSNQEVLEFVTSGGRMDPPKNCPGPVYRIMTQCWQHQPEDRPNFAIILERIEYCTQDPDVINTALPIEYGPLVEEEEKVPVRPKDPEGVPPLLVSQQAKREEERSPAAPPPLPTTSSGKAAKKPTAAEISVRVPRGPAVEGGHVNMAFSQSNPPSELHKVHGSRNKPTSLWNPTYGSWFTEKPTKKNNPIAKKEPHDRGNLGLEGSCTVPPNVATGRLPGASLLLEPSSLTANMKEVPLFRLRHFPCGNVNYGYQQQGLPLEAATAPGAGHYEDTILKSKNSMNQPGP

Structure (SMILES) | IC50 [1] [nM] | IC50 [2] [nM] | IC50 [3] [nM] | IC50 [4] [nM]
CCC(C)N1CCc2cc(OC)c(Nc3nc(Nc4cccc(F)c4C(N)=O)c4cc[nH]c4n3)cc2C1 (stereo not drawn) [Example 237, 2-fluoro-6-[(2-{[6-(methyloxy)-2-(1-methylpropyl)-1,2,3,4-tetrahydro-7-isoquinolinyl]amino}-1H-pyrrolo[2,3-d]pyrimidin-4-yl)amino]benzamide] | 1.26 to 3.98 | 250 to 1000 | < 250 | < 100
COc1cc2c(cc1Nc1nc(Nc3cc(F)cc(F)c3C(N)=O)c3cc[nH]c3n1)CN(CCF)CC2 [Example 239, 2,4-difluoro-6-[(2-{[2-(2-fluoroethyl)-6-(methyloxy)-1,2,3,4-tetrahydro-7-isoquinolinyl]amino}-1H-pyrrolo[2,3-d]pyrimidin-4-yl)amino]benzamide] | 1.26 to 3.98 | > 1000 | 250 to 1000 | > 500
Cc1cc2c(cc1Nc1nc(Nc3cccc(F)c3C(N)=O)c3cc[nH]c3n1)N(C(=O)CN(C)C)CCC2 [Example 246, 2-[(2-{[1-(N,N-dimethylglycyl)-6-methyl-1,2,3,4-tetrahydro-7-quinolinyl]amino}-1H-pyrrolo[2,3-d]pyrimidin-4-yl)amino]-6-fluorobenzamide] | 5.01 to 200 | 250 to 1000 | < 250 | 100 to 500

Next, values leading:

IC50 [1] [nM] | IC50 [2] [nM] | IC50 [3] [nM] | IC50 [4] [nM] | Structure (SMILES)
1.26 to 3.98 | 250 to 1000 | < 250 | 100 to 500 | COc1cc2c(cc1Nc1nc(Nc3cccc(F)c3C(N)=O)c3cc[nH]c3n1)CN(C(C)C)CC2 [Example 236, 2-fluoro-6-[(2-{[2-(1-methylethyl)-6-(methyloxy)-1,2,3,4-tetrahydro-7-isoquinolinyl]amino}-1H-pyrrolo[2,3-d]pyrimidin-4-yl)amino]benzamide]
0.251 to 1 | 250 to 1000 | < 250 | > 500 | CNC(=O)c1c(F)cccc1Nc1nc(Nc2cc(NC(=O)CN(C)C)ccc2OC)nc2[nH]ccc12 [Example 245, 2-[(2-{[5-[(N,N-dimethylglycyl)amino]-2-(methyloxy)phenyl]amino}-1H-pyrrolo[2,3-d]pyrimidin-4-yl)amino]-6-fluoro-N-methylbenzamide]
0.251 to 1 | 250 to 1000 | 250 to 1000 | 100 to 500 | CNC(=O)c1c(F)cccc1Nc1nc(Nc2cc3c(cc2OC)CCN3C(=O)CN(C)C)nc2[nH]cc(F)c12 [Example 253, 2-[(2-{[1-(N,N-dimethylglycyl)-5-(methyloxy)-2,3-dihydro-1H-indol-6-yl]amino}-5-fluoro-1H-pyrrolo[2,3-d]pyrimidin-4-yl)amino]-6-fluoro-N-methylbenzamide]
